The record followed here is ChEMBL document CHEMBL5346882 (Eur J Med Chem, 2023).

Where only a bound is given, the exact number is not on record here.

For data set [1], the target named is T1, Cholinesterase (Homo sapiens, UniProt P06276). Put plainly: Inhibition of human recombinant BuChE using butyrylthiocholine iodide as substrate at 1 uM preincubated for 5 mins followed by substrate addition and measured after 5 mins by DTNB-reagent based Ellman's method relative to control. The conditions noted are these: time 10.0 min.
Data set [2] addresses Cholinesterase (Equus caballus) (UniProt P81908). Put plainly: Inhibition of horse serum BuChE using butyrylthiocholine iodide as substrate at 10 uM preincubated for 5 mins followed by substrate addition and measured after 5 mins by DTNB-reagent based Ellman's method relative to control. The data set is classed as cell-free. To be noted: time 10.0 min.
Data set [3] has as its target T1, Cholinesterase.
Description: Inhibition of human recombinant BuChE using butyrylthiocholine iodide as substrate preincubated for 5 mins followed by substrate addition and measured after 5 mins by DTNB-reagent based Ellman's method
The target of data set [4] is Cholinesterase (Equus caballus, UniProt P81908).
Description: Inhibition of horse serum BuChE using butyrylthiocholine iodide as substrate preincubated for 5 mins followed by substrate addition and measured after 5 mins by DTNB-reagent based Ellman's method
A short description of data set [5]: cells. To be noted: Mus musculus, HEK293.
Description: Inhibition of mouse GAT2 expressed in HEK293 cells assessed as reduction in [3H]-GABA uptake incubated for 10 mins
A further data set addresses T2, GABA transporter 4 (Mus musculus, UniProt P31650).
T2 sequence (P31650 whole entry): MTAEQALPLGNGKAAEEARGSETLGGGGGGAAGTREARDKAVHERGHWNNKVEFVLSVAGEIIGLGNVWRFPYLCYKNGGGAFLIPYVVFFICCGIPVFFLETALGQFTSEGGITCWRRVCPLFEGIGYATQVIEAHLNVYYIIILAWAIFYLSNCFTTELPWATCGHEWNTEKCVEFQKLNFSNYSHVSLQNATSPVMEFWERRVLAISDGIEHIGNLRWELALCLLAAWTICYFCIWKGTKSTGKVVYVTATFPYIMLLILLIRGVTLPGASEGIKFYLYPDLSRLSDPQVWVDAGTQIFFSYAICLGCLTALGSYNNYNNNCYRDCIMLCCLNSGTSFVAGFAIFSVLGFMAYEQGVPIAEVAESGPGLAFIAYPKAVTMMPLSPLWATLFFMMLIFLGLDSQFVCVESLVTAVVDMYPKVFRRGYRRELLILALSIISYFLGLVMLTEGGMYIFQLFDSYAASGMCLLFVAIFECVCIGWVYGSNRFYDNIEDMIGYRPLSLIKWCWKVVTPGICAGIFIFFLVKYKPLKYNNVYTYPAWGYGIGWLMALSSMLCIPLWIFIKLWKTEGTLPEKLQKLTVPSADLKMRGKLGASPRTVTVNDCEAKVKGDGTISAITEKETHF
The data set can be described thus: Inhibition of mouse GAT4 expressed in HEK293 cells assessed as reduction in [3H]-GABA uptake incubated for 10 mins. In kind it is cell-based.

For data set [6], the target named is Sodium- and chloride-dependent GABA transporter 1 (Mus musculus, UniProt P31648). Put plainly: Inhibition of mouse GAT1 expressed in HEK293 cells assessed as reduction in [3H]-GABA uptake incubated for 10 mins. In kind it is cell-based.
A short description of data set [7]: cells. The conditions noted are these: Mus musculus, HEK293. The source holds these as a separate data set.
Description: Inhibition of mouse GAT3 expressed in HEK293 cells assessed as reduction in [3H]-GABA uptake incubated for 10 mins
For another data set, the target named is Cytochrome P450 3A4 (Homo sapiens, UniProt P08684). The data set can be described thus: Inhibition of CYP3A4 (unknown origin) at 10 uM. The data set is classed as ADME.
The nature of a further data set: in vitro. The conditions noted are these: human, HepG2 cells.
The next data set deals with Cytochrome P450 2D6 (Homo sapiens, UniProt P10635). Put plainly: Inhibition of CYP2D6 (unknown origin) at 10 uM. In kind it is ADME.
For another data set, the target named is hERG (KCNH2) (Homo sapiens, UniProt Q12809). The data set can be described thus: Inhibition of human ERG at 10 uM relative to control. In kind it is toxicity.
Data set [8] has as its target ATP-dependent translocase ABCB1 (Homo sapiens, UniProt P08183). Put plainly: Substrate activity at P-gp membranes (unknown origin) at 100 uM incubated for 40 mins by luminescent glo assay relative to control. In kind it is ADME, cell membranes, Membrane.
The nature of data set [9]: Drug metabolism in human liver microsomes assessed as N-dealkylation mediated metabolite formation. In kind it is ADME, Microsome.
Data set [10] in a line: Drug metabolism in human liver microsomes assessed as oxidation mediated metabolite formation. In kind it is ADME, Microsome.
The nature of data set [11]: Drug metabolism in human liver microsomes assessed as hydroxylation mediated metabolite formation. The data set is classed as ADME, Microsome.
Data set [12] is described as follows: Metabolic stability in human liver microsomes assessed as parent compound remaining incubated for 120 mins in presence of NADPH regeneration system by UPLC/MS analysis. In kind it is ADME, Microsome. To be noted: read-out: Stability.
Data set [13] is described as follows: Toxicity in Albino Swiss CD-1 mouse model of scopolamine induced memory deficit assessed as motor deficit at 30 mg/kg, ip pretreated for 30 mins followed by scopolamine administration and measured after 30 mins. In kind it is organism-based. To be noted: in vivo, 1 h, time 60 min.
Data set [14] can be described thus: Toxicity in Albino Swiss CD-1 mouse model of scopolamine induced memory deficit assessed as sedation at 30 mg/kg, ip pretreated for 30 mins followed by scopolamine administration and measured after 30 mins. The data set is classed as organism-based. The conditions noted are these: in vivo, 1 h, time 60 min.

Sequence of Cytochrome P450 3A4 (P08684 whole entry): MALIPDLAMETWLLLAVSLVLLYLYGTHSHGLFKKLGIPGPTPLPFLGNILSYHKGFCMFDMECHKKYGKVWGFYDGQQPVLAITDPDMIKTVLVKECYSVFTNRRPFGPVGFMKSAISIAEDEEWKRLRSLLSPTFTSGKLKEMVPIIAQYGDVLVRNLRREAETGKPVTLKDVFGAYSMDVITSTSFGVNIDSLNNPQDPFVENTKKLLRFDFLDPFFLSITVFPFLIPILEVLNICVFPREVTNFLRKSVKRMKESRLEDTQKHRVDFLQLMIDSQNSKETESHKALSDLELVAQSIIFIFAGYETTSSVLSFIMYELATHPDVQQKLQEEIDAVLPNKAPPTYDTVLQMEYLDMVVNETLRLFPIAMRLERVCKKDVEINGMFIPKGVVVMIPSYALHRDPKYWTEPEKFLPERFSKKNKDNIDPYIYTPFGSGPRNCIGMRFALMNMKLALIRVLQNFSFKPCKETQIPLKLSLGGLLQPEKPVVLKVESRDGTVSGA
Sequence of Cholinesterase (Equus caballus) (P81908 whole entry): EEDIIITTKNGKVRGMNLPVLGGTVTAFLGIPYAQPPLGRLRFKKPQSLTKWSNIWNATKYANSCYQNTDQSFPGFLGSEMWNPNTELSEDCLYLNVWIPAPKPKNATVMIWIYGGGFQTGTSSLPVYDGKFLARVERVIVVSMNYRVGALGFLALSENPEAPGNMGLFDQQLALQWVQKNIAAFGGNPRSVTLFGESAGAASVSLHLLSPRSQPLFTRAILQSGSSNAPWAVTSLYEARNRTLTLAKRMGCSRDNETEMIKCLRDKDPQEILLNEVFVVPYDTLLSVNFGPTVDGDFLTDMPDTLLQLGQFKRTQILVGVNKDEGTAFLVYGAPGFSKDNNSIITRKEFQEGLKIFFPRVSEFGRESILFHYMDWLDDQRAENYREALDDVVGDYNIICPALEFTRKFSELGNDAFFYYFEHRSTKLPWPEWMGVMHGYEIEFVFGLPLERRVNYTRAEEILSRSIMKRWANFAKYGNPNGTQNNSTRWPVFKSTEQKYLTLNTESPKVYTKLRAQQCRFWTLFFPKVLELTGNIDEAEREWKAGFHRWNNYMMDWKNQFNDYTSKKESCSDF
Sequence of Cholinesterase (Equus caballus, UniProt P81908) (P81908 whole entry): as above
T1 sequence (P06276 whole entry): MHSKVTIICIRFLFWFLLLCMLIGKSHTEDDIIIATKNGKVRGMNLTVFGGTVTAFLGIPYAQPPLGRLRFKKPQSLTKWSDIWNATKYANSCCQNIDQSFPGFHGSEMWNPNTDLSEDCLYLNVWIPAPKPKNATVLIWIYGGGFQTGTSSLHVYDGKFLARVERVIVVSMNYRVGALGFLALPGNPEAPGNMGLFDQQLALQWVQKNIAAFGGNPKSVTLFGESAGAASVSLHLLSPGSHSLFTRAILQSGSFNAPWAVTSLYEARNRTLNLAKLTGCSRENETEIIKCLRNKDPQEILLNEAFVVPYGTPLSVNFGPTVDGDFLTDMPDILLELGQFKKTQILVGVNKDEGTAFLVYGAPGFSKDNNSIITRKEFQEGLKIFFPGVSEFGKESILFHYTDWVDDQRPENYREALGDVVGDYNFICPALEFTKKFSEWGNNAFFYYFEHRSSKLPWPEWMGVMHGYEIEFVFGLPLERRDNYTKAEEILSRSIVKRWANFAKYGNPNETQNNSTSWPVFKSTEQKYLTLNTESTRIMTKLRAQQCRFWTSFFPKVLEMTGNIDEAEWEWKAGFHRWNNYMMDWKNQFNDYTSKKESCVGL
Sequence of Cytochrome P450 2D6 (P10635 whole entry): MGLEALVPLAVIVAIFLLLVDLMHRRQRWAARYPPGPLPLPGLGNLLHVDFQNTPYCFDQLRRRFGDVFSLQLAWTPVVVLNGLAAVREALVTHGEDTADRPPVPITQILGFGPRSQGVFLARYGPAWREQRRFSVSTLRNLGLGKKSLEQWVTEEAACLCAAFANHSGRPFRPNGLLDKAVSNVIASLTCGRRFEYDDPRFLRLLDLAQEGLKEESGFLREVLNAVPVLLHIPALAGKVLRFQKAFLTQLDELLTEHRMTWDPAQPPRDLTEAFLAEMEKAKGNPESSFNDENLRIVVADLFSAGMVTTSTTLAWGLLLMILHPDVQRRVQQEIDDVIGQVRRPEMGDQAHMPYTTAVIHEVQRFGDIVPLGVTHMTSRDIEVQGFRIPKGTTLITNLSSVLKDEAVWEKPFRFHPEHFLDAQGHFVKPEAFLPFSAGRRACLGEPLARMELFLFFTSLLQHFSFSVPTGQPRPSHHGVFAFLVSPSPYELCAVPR
Sequence of ATP-dependent translocase ABCB1 (P08183 whole entry): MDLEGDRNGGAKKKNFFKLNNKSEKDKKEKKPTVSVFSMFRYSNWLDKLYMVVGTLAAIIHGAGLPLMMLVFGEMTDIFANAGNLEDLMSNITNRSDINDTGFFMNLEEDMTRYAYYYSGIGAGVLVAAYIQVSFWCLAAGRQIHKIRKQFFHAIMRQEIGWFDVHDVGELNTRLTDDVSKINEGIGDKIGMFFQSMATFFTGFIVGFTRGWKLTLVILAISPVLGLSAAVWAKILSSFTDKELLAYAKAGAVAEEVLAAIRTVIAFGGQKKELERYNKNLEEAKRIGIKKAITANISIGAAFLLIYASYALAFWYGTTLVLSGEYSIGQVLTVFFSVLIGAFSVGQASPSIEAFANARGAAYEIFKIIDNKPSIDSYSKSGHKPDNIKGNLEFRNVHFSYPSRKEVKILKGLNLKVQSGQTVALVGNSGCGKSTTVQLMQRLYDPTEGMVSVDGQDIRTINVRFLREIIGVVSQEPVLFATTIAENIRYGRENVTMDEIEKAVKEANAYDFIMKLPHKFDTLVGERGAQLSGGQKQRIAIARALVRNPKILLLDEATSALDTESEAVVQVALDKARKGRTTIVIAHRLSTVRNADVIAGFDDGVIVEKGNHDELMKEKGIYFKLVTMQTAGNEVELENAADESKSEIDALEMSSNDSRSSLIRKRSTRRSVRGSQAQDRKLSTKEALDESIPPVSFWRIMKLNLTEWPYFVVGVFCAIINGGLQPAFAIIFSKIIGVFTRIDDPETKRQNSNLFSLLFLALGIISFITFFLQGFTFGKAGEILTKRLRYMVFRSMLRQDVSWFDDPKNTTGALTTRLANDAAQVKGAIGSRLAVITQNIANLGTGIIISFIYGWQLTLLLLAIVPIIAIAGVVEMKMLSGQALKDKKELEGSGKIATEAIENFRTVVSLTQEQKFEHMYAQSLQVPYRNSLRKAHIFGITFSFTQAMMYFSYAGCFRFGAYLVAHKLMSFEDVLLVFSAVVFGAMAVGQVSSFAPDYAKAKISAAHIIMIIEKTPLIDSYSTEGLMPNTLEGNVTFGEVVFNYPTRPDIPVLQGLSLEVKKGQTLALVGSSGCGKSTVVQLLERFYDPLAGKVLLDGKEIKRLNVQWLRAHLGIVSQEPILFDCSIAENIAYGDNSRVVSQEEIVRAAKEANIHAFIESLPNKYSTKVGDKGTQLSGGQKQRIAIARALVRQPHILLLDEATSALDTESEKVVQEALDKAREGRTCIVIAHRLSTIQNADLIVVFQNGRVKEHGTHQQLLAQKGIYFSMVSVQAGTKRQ
Description for in vitro: Hepatotoxicity in human HepG2 cells assessed as reduction in cell viability incubated for 72 hrs by MTS assay

In the case of `CC(C)(NCC(O)CNC(=O)CC(c1ccccc1)c1ccccc1)c1ccccc1` (racemic), the values for the inhibition (at Cholinesterase [1]; in [2]) were < 20% and 44%, respectively.
For `CC(C)(C)c1ccc(CNCC(O)CNC(=O)C(c2ccccc2)c2ccccc2)cc1` (racemic), the IC50 against Cholinesterase [3] came out at 300 nM; at Cholinesterase [4] it was 1120 nM.
For the compound `CC(C)(NCC(O)CNC(=O)C(c1ccccc1)c1ccccc1)c1ccccc1` (racemic), the inhibition on Cholinesterase [1] is < 20%; in data set [2], 42%.
With `O=C(NCC(O)CNCc1ccccc1)C(c1ccccc1)c1ccccc1` (racemic), the IC50 is > 10000 nM in the data set “cells [5]”; > 10000 nM on GABA transporter 4; > 10000 nM in data set [6]; 2540 nM at Cholinesterase [4]; > 10000 nM in the data set “cells [7]”. The inhibition on Cholinesterase [1] is < 20%.
Take `O=C(NC[C@@H](O)CNCC1CCCCC1)C(c1ccccc1)c1ccccc1`: the “inhibition (INH)” value against Cytochrome P450 3A4 and on Cytochrome P450 2D6 was “Active” each time. Moreover, in the data set “in vitro”, the CC50 at 72 h came out at 25800 nM.
As to `COc1cccc(CNCC(O)CNC(=O)CC(c2ccccc2)c2ccccc2)c1` (racemic), the IC50 at Cholinesterase [3] came out at 250 nM; on Cholinesterase [4] it was 660 nM.
As for `CC(C)c1cccc(CNCC(O)CNC(=O)CC(c2ccccc2)c2ccccc2)c1` (racemic), the results for the IC50 against Cholinesterase [3] and at Cholinesterase [4] were 260 nM and 630 nM, respectively.
Turning to `C[C@H](NCC(O)CNC(=O)C(c1ccccc1)c1ccccc1)c1ccccc1` (mixture of isomers), the inhibition on Cholinesterase [1] was < 20%. The same compound registered an IC50 against Cholinesterase [4] of 4540 nM.
In the same order, the values of `COc1cccc(CNCC(O)CNC(=O)C(c2ccccc2)c2ccccc2)c1` (racemic) are 70% and 2180 nM.
The corresponding values for `C[C@H](NCC(O)CNC(=O)CC(c1ccccc1)c1ccccc1)c1ccccc1` (mixture of isomers) are 34% and 4770 nM.
For `O=C(NC[C@H](O)CNCC1CCCCC1)C(c1ccccc1)c1ccccc1`, the “inhibition (INH)” value against Cytochrome P450 3A4 and against Cytochrome P450 2D6 was “Active” in each case. In the data set “in vitro”, this compound returned a CC50 at 72 h of 18700 nM.
As for `O=C(CC(c1ccccc1)c1ccccc1)NC[C@@H](O)CNCC1CCCCC1`, the “inhibition (INH)” value on Cytochrome P450 3A4 and at Cytochrome P450 2D6 was “Active” in each case. Moreover, in “in vitro”, the CC50 at 72 h stood at 3210 nM. Also, at hERG (KCNH2), the inhibition at 10 µM was < 50%. The Activity entry in data set [8] was “<= 190%”.
As for `O=C(CC(c1ccccc1)c1ccccc1)NCC(O)CNCc1ccccc1` (racemic), the Drug metabolism entry in data set [9], in [10] and in data set [11] was “Metabolite_Detected” throughout. Besides, the “inhibition (INH)” value against Cytochrome P450 3A4 and against Cytochrome P450 2D6 was “Active” throughout. Moreover, the results for the IC50 at Cholinesterase [3] and against Cholinesterase [4] were 280 nM and 610 nM, respectively. Also, in [12], the remaining at 2 h worked out at 66%.
On to `CC(C)(C)c1cccc(CNCC(O)CNC(=O)C(c2ccccc2)c2ccccc2)c1` (racemic), for which the IC50 was > 10000 nM in “cells [5]”; > 10000 nM at GABA transporter 4; 100 nM against Cholinesterase [3]; > 10000 nM in [6]; 260 nM against Cholinesterase [4]; > 10000 nM in “cells [7]”.
Turning to `O=C(NCC(O)CNCC1CC1)C(c1ccccc1)c1ccccc1` (racemic), the inhibition at Cholinesterase [1] is < 20%; in data set [2], 47%.
In the case of `O=C(CC(c1ccccc1)c1ccccc1)NCC(O)CNCc1cccc(C(F)(F)F)c1` (racemic), the values for the IC50 at Cholinesterase [3] and against Cholinesterase [4] were 410 nM and 1730 nM, respectively.
Take `O=C(NCC(O)CNCc1cccc(C(F)(F)F)c1)C(c1ccccc1)c1ccccc1` (racemic): the IC50 at Cholinesterase [3] was determined as 700 nM; against Cholinesterase [4], 960 nM.
With `CC(C)(C)c1cccc(CNCC(O)CNC(=O)CC(c2ccccc2)c2ccccc2)c1` (racemic), the half-maximal inhibitory concentration (IC50) in “cells [5]” is > 10000 nM; on GABA transporter 4, > 10000 nM; against Cholinesterase [3], 180 nM; in data set [6], > 10000 nM; on Cholinesterase [4] it was 320 nM; in “cells [7]”, > 10000 nM.
Turning to `O=C(CC(c1ccccc1)c1ccccc1)NCC(O)CNCC1CC1` (racemic), the IC50 is > 10000 nM in “cells [5]”; > 10000 nM on GABA transporter 4; > 10000 nM in data set [6]; 3580 nM against Cholinesterase [4]; > 10000 nM in the data set “cells [7]”. At Cholinesterase [1], the inhibition is 46%.
On to `O=C(NCC(O)CNCC1CCCCC1)C(c1ccccc1)c1ccccc1` (stereo not drawn), for which, in [9], the Drug metabolism result was “Metabolite_Detected”. Also, the “inhibition (INH)” value at Cytochrome P450 3A4 and at Cytochrome P450 2D6 was “Active” throughout. In data set [12], the remaining at 2 h is > 80%.
On to `O=C(CC(c1ccccc1)c1ccccc1)NC[C@H](O)CNCC1CCCCC1`, for which the “inhibition (INH)” value at Cytochrome P450 3A4 and on Cytochrome P450 2D6 was “Active” in each case. This compound had a CC50 at 72 h in the data set “in vitro” of 2850 nM. In addition, the inhibition at 10 µM against hERG (KCNH2) was < 50%. Also, the Activity entry is “Toxic” in [13], “Toxic” in data set [14] and “<= 190%” in data set [8].
Take `CC(C)(C)c1ccc(CNCC(O)CNC(=O)CC(c2ccccc2)c2ccccc2)cc1` (racemic): the IC50 stood at 160 nM on Cholinesterase [3] and 1940 nM at Cholinesterase [4].
